The test system of one data set is Salmonella typhimurium. The data set can be described thus: Genotoxicity in Salmonella typhimurium TA98 up to 5000 ug by Ames test. The class given is toxicity, organism-based. The note with it: salmonella enterica subsp. enterica serovar typhimurium.
In data set [1] the target is T1, Peroxisome proliferator-activated receptor gamma (Homo sapiens, UniProt P37231).
T1 sequence (P37231 whole entry): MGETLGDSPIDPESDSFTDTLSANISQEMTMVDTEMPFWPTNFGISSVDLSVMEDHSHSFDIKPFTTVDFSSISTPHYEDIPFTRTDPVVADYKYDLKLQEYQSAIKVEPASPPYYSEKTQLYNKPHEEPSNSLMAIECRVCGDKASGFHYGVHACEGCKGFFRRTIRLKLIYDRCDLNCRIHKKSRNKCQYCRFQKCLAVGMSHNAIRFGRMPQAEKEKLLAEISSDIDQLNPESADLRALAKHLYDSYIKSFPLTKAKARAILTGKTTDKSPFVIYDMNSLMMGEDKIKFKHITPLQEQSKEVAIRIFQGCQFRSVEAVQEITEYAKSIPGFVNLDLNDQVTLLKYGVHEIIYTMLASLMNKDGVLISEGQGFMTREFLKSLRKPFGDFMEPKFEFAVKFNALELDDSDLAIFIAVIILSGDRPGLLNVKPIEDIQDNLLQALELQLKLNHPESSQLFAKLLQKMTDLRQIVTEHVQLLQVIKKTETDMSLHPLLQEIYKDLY
Description: Binding affinity to human GST-tagged PPAR-gamma LBD expressed in Escherichia coli BL21 after 30 mins in presence of fluorescein ligand FLA-A by fluorescence polarization assay.

For a further data set, the target named is Cytochrome P450 2C8 (Homo sapiens, UniProt P10632). Description: Inhibition of CYP2C8 (unknown origin). The class given is ADME.
Chain of Cytochrome P450 2C8 (P10632 whole entry): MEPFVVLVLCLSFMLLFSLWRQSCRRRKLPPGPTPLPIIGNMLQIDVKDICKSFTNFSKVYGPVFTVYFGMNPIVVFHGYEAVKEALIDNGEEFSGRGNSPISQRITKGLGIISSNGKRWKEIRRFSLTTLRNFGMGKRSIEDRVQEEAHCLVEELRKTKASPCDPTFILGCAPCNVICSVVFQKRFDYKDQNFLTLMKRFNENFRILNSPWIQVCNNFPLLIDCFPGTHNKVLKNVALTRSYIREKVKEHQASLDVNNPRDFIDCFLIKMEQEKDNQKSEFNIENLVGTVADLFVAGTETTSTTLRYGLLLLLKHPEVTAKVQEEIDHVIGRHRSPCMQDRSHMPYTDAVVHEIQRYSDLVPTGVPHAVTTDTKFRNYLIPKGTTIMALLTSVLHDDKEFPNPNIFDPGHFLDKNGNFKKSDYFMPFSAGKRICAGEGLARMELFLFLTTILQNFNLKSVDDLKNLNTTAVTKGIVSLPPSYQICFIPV
Data set [2] in a line: Protein binding in mouse plasma. The following applies: read-out: PPB (converted). Type of data set: ADME, cell-free.
A short description of data set [3]: Volume of distribution at steady state in dog at 1 mg/kg, iv. Type of data set: ADME, organism-based, Canis lupus familiaris. The following applies: in vivo, read-out: Vdss.
Data set [4] addresses T1, Peroxisome proliferator-activated receptor gamma. Description: Agonist activity at full length human PPAR-gamma transfected in human HepG2 cells by luciferase reporter gene assay. Type of data set: cell-based.
The target in the next data set is Cytochrome P450 2C9 (Homo sapiens, UniProt P11712). The data set can be described thus: Inhibition of CYP2C9 (unknown origin). Type of data set: ADME.
Chain of Cytochrome P450 2C9 (P11712 whole entry): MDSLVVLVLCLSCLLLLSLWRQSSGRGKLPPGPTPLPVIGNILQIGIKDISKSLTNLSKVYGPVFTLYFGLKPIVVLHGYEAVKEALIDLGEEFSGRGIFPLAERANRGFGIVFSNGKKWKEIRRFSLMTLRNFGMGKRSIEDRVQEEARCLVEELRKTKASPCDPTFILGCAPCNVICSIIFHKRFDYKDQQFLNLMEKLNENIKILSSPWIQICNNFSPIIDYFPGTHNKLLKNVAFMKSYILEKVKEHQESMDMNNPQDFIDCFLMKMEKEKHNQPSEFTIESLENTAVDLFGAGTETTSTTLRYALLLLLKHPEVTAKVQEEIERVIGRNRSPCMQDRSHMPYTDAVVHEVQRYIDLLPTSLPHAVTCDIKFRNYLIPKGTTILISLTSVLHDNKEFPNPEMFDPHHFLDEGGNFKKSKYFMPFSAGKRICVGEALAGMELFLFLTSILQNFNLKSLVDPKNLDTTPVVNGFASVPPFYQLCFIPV
The nature of data set [5]: Cardiovascular toxicity in purkinje fiber (unknown origin) assessed as change in action potential duration at 90% repolarization at 30 uM.
Another data set deals with Syrian golden hamster. The data set can be described thus: Decrease in plasma LDL cholesterol level in high fat-diet fed syrian golden hamster model of dyslipidemia at 10 mg/kg administered qd through oral gavage measured after 21 days by FPLC analysis relative to control. Type of data set: functional, Mesocricetus auratus. Set-up: scale not given: the % may be the effect or the level left.

Data set [6] in a line: AUC (0 to 8 hrs) in Balb/c mouse at 10 mg/kg, po. Type of data set: ADME, organism-based. On the set-up: dose 10 mg/kg, time < 8 hr, route oral. The note with it: in vivo.
The next data set addresses Cytochrome P450 2D6 (Homo sapiens, UniProt P10635). The data set can be described thus: Inhibition of CYP2D6 in human TC5 cells. Type of data set: ADME, cell-based.

Chain of Cytochrome P450 2D6 (P10635 whole entry): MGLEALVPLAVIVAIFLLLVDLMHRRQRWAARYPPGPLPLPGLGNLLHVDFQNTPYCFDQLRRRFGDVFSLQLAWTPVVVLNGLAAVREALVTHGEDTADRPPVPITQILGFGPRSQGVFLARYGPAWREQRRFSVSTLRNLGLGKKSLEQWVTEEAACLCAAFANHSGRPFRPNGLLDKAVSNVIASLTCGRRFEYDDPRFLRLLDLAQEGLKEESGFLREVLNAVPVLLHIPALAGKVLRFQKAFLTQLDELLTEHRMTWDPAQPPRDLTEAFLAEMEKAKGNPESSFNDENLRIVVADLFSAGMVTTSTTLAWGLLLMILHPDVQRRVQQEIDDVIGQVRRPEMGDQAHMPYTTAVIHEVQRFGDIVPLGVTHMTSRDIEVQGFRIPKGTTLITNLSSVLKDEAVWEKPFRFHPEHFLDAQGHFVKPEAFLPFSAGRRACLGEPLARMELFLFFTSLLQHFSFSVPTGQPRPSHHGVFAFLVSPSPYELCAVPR

As to `COC(=O)N(CC(=O)O)Cc1cc(OCc2nc(-c3ccc(Cl)cc3)oc2C)ccc1F`, the values for the Activity entry (in the data set with Salmonella typhimurium; in [5]; with Syrian golden hamster) were “Non-toxic”, -5.4% and 87%, respectively. For the same compound, the IC50 in data set [1] is above 98.4 µM; against Cytochrome P450 2C8, above 40 µM; against Cytochrome P450 2C9, above 40 µM; at Cytochrome P450 2D6, above 150 µM. Also, the fraction unbound in data set [2] is 0.002. Further, the Vd in data set [3] is 2.1 L/kg. This compound also showed an EC50 in data set [4] above 1.61 µM. This compound yielded an AUC(0-t) at 8 h in data set [6] of 17 µM·h.

(Values after ChEMBL document CHEMBL3826929, “Discovery and Preclinical Evaluation of BMS-711939, an Oxybenzylglycine Based PPARα Selective Agonist” (ACS Med Chem Lett, 2016).)
